≈ marks a conversion by molar mass, not a printed value. Structures can show the parent of a compound that is named as a salt. Where two headings read alike, the source gives them in different places.
Experiments:
stationary phase E. coli = assay: Bactericidal activity against stationary phase E. coli (CFU counts); format: cell-based, Escherichia coli; conditions: for log reduction at 6.25 µg/mL / log reduction at 12.5 µg/mL / log reduction at 25 µg/mL: Escherichia coli, read-out: Log kill
Description: (§1) Escherichia coli K12; Gram negative; Reference strain.
(§2) Bacteria were grown in 10 ml of nutrient broth (No. 2 (Oxoid)) overnight at 37° C., with continuous shaking at 120 rpm. The overnight cultures were diluted (1000×) in 100 ml of growth medium and then incubated without shaking for 10 days. Viability of the bacteria was estimated by colony forming unit (CFU) counts at 2 hour intervals at the first 24 hours and at 12-24 hours afterwards. From serial 10-fold dilutions of the experimental cultures, 100 μl samples were added to triplicate plates of nutrient agar plates (Oxoid) and blood agar plates (Oxoid). Colony forming units (CFU) were counted after incubation of the plates at 37° C. for 24 hours.
(§3) Cultures incubated for more than 24 hours are in the stationary phase. For drug screening, 5-6 day old stationary phase cultures were used.
(§4) Different concentrations of each test compound were incubated with stationary phase cultures (5-6 day cultures) in 96 well plates for 24 or 48 hours. Bactericidal activity was then determined by taking CFU counts of the resulting cultures, as described above.

persistent E. coli = assay: Bactericidal activity against persistent E. coli selected by gentamicin; format: cell-based, Escherichia coli; conditions: for log reduction at 6.25 µg/mL / log reduction at 12.5 µg/mL / log reduction at 25 µg/mL: Escherichia coli, read-out: Log Kill
Description: as §1
An antibiotic (gentamicin) was added to 5-6 day stationary-phase cultures to the final concentration of 50 to 100 μg/ml for 24 hours. After 24 hours of antibiotic treatment, the cells are washed 3 times with phosphate buffered saline (PBS), and then resuspended in PBS. The surviving bacterial cells are used as persisters. Viability is estimated by CFU counts. The persisters were then used in measurements of bactericidal activity for test compounds.
Different concentrations of each test compound were incubated with the (persister) cell suspension in 96 well plates for various periods of time (24 and 48 hours). Bactericidal activity was then determined by taking CFU counts of the resulting cultures, as described above.

log phase E. coli = assay: MIC against log phase E. coli; format: cell-based, Escherichia coli
Description: as §1
The above-described overnight cultures were diluted (1000×) with iso-sensitest broth. The cultures were then incubated at 37° C. with shaking for 1-2 hours to reach log CFU 6, which served as log phase cultures.
The bactericidal activity of the drugs against log phase cultures were determined by minimal inhibitory concentration (MIC) of the drugs, which is defined as the lowest concentration which inhibits visible growth. Different concentrations of each test compound were incubated with the log-phase cultures in 96 well plates for 24 hours. Bactericidal activity was then examined by taking a spectrophotometer reading (using a plate reader) at 405 nm.

[1] = test system: stationary phase S. aureus; assay: Bactericidal activity against stationary phase S. aureus (CFU counts); format: cell-based, Staphylococcus aureus; conditions: for log reduction at 6.25 µg/mL / log reduction at 12.5 µg/mL / log reduction at 25 µg/mL: Staphylococcus aureus, read-out: Log Kill
Description: Staphylococcus aureus (Oxford strain); Gram positive; Reference strain.
as §2, §3, §4

[2] = test system: NDM-1 Klebsiella pneumoniae; assay: Chequerboard analysis with colistin against NDM-1 Klebsiella pneumoniae; format: cell-based
[3] = test system: stationary phase P. aeruginosa; assay: Bactericidal activity against stationary phase P. aeruginosa; format: cell-based, Pseudomonas aeruginosa; conditions: FIG. 1
Description: as §2, with “Pseudomonas aeruginosa NCTC 6751; Gram negative; Reference strain. Bacteria” for “Bacteria”, “hours. Cultures incubated for more than 24 hours are in the stationary phase. For drug screening, 5-6 day old stationary phase cultures were used. Different concentrations of each test compound were incubated with stationary phase cultures (5-6 day cultures) in 96 well plates for 24 or 48 hours. Bactericidal activity was then determined by taking CFU counts of the resulting cultures, as described above.” for “hours.”

[4] = Escherichia coli, read-out: MIC

Compound | Log Kill (stationary phase E. coli; 6.25 μg/ml) | Log Kill (stationary phase E. coli; 12.50 μg/ml) | Log Kill (stationary phase E. coli; 25.00 μg/ml) | Log Kill (persistent E. coli; 6.25 μg/ml) | Log Kill (persistent E. coli; 12.5 μg/ml) | Log Kill (persistent E. coli; 25 μg/ml) | MIC (log phase E. coli) | log reduction at 6.25 µg/mL (persistent E. coli; 6.25 μg/ml) | log reduction at 12.5 µg/mL (persistent E. coli; 12.5 μg/ml) | log reduction at 25 µg/mL (persistent E. coli; 25 μg/ml) | MIC (log phase E. coli; [4]) | log reduction at 6.25 µg/mL ([1]; 6.25 μg/ml) | log reduction at 12.5 µg/mL ([1]; 12.5 μg/ml) | log reduction at 25 µg/mL ([1]; 25 μg/ml) | log reduction at 6.25 µg/mL (stationary phase E. coli; 6.25 μg/ml) | log reduction at 12.5 µg/mL (stationary phase E. coli; 12.50 μg/ml) | log reduction at 25 µg/mL (stationary phase E. coli; 25.00 μg/ml) | also measured
N.N.O=C([O-])C1(C(=O)[O-])CCC1.[Pt+2] [Carboplatin] | 6.14 | 6.14 | 6.14 | 1.55 | 2.55 | 6.21 | — (— signifies MIC higher than 50 μg/ml) |  |  |  |  |  |  |  |  |  |  | Log Kill ([1]; 6.25 μg/ml): 0.92; Log Kill ([1]; 12.5 μg/ml): 6.03; Log Kill ([1]; 25 μg/ml): 6.03
CN(C)CC/C=C1/c2ccccc2Sc2ccc(Cl)cc21 [Chlorprothixene hydrochloride] |  |  |  |  |  |  |  | 0.02 | 0.03 | 6.21 | 20 µg/mL | 1.83 | 6.15 | 6.15 |  |  |  | spectrophotometer reading ([2]; chlorprothixene hydrochloride 0.25 mg/L alone): 1.14; spectrophotometer reading ([2]; chlorprothixene hydrochloride 0.5 mg/L alone): 1.15; spectrophotometer reading ([2]; chlorprothixene hydrochloride 1 mg/L alone): 1.13; spectrophotometer reading ([2]; chlorprothixene hydrochloride 2 mg/L alone): 1.12; spectrophotometer reading ([2]; chlorprothixene hydrochloride 4 mg/L alone): 1.12; spectrophotometer reading ([2]; chlorprothixene hydrochloride 8 mg/L alone): 1.13; spectrophotometer reading ([2]; chlorprothixene hydrochloride 16 mg/L alone): 1.10; spectrophotometer reading ([2]; chlorprothixene hydrochloride 32 mg/L alone): 1.05; spectrophotometer reading ([2]; chlorprothixene hydrochloride 64 mg/L alone): 0.70; spectrophotometer reading ([2]; chlorprothixene hydrochloride 128 mg/L alone): 0.62; spectrophotometer reading ([2]; chlorprothixene hydrochloride 256 mg/L alone): 0.40
N.N.[Cl][Pt][Cl] [Cisplatin] | 6.14 | 6.14 | 6.14 | 6.21 | 6.21 | 6.21 | — (— signifies MIC higher than 50 μg/ml) |  |  |  |  |  |  |  |  |  |  | Log Kill ([1]; 6.25 μg/ml): 6.03; Log Kill ([1]; 12.5 μg/ml): 6.03; Log Kill ([1]; 25 μg/ml): 6.03
CO[C@@]12[C@H](COC(N)=O)C3=C(C(=O)C(C)=C(N)C3=O)N1C[C@@H]1N[C@@H]12 [Mitomycin C] | 2.27 | 6.14 | 6.14 | 6.21 | 6.21 | 6.21 | 0.3 µg/mL (≈ 0.897 µM) |  |  |  |  |  |  |  |  |  |  | Log Kill ([1]; 6.25 μg/ml): 6.15; Log Kill ([1]; 12.5 μg/ml): 6.15; Log Kill ([1]; 25 μg/ml): 6.15
Cl.Cl.O=C1c2c(O)ccc(O)c2C(=O)c2c(NCCNCCO)ccc(NCCNCCO)c21 [Mitoxanthrone hydrochloride] | 6.14 | 6.14 | 6.14 | 6.21 | 6.21 | 6.21 | — (— signifies MIC higher than 50 μg/ml) |  |  |  |  |  |  |  |  |  |  | 
N=C1C=CC(=C(c2ccc(N)cc2)c2ccc(N)cc2)C=C1 [Pararosaniline pamoate] |  |  |  |  |  |  |  | -0.01 | 0.01 | 6.21 | 10 µg/mL | 6.15 | 6.15 | 6.15 | 1.9 | 6.14 | 6.14 | 
C[n+]1cc2c3c(ccc2c2ccc4cc5c(cc4c21)OCO5)OCO3 [Sanguinarine sulfate] |  |  |  |  |  |  |  | 0.04 | 1.47 | 6.21 | > 50 µg/mL | 6.15 | 6.15 | 6.15 | -0.1 | 2.4 | 6.14 | 
CCCCCCCCNC(C)C(O)c1ccc(SC(C)C)cc1 (centres unmarked) [Suloctidil] |  |  |  |  |  |  |  | 0.02 | 0.02 | 6.21 | 10 µg/mL (≈ 29.6 µM) | 6.03 | 6.03 | 6.03 |  |  |  | activity against stationary phase P. aeruginosa [3]: no observable activity; spectrophotometer reading ([2]; suloctidil 0.25 mg/L alone): 0.97; spectrophotometer reading ([2]; suloctidil 0.5 mg/L alone): 1.03; spectrophotometer reading ([2]; suloctidil 1 mg/L alone): 0.98; spectrophotometer reading ([2]; suloctidil 2 mg/L alone): 0.93; spectrophotometer reading ([2]; suloctidil 4 mg/L alone): 0.94; spectrophotometer reading ([2]; suloctidil 8 mg/L alone): 0.70; spectrophotometer reading ([2]; suloctidil 16 mg/L alone): 0.60; spectrophotometer reading ([2]; suloctidil 32 mg/L alone): 0.60; spectrophotometer reading ([2]; suloctidil 64 mg/L alone): 0.38; spectrophotometer reading ([2]; suloctidil 128 mg/L alone): 0.44; spectrophotometer reading ([2]; suloctidil 256 mg/L alone): 0.61
CSc1ccc2c(c1)N(CCC1CCCCN1C)c1ccccc1S2 (centres unmarked) [Thioridazine hydrochloride] |  |  |  |  |  |  |  | 0.04 | 0.03 | 6.21 | 10 µg/mL | 6.03 | 6.03 | 6.03 | 6.14 | 6.14 | 6.14 | spectrophotometer reading ([2]; thioridazine hydrochloride 0.25 mg/L alone): 0.98; spectrophotometer reading ([2]; thioridazine hydrochloride 0.5 mg/L alone): 0.97; spectrophotometer reading ([2]; thioridazine hydrochloride 1 mg/L alone): 0.97; spectrophotometer reading ([2]; thioridazine hydrochloride 2 mg/L alone): 0.96; spectrophotometer reading ([2]; thioridazine hydrochloride 4 mg/L alone): 0.96; spectrophotometer reading ([2]; thioridazine hydrochloride 8 mg/L alone): 0.96; spectrophotometer reading ([2]; thioridazine hydrochloride 16 mg/L alone): 0.96; spectrophotometer reading ([2]; thioridazine hydrochloride 32 mg/L alone): 0.93; spectrophotometer reading ([2]; thioridazine hydrochloride 64 mg/L alone): 0.73; spectrophotometer reading ([2]; thioridazine hydrochloride 128 mg/L alone): 0.76; spectrophotometer reading ([2]; thioridazine hydrochloride 256 mg/L alone): 1.41
CN(C)CCCN1c2ccccc2Sc2ccc(C(F)(F)F)cc21 [Triflupromazine hydrochloride] |  |  |  |  |  |  |  | 0.03 | 2.34 | 6.21 | 10 µg/mL | 6.15 | 6.15 | 6.15 | 2.1 | 6.14 | 6.14 | spectrophotometer reading ([2]; triflupromazine 0.25 mg/L alone): 1.11; spectrophotometer reading ([2]; triflupromazine 0.5 mg/L alone): 1.13; spectrophotometer reading ([2]; triflupromazine 1 mg/L alone): 1.14; spectrophotometer reading ([2]; triflupromazine 2 mg/L alone): 1.13; spectrophotometer reading ([2]; triflupromazine 4 mg/L alone): 1.14; spectrophotometer reading ([2]; triflupromazine 8 mg/L alone): 1.17; spectrophotometer reading ([2]; triflupromazine 16 mg/L alone): 1.11; spectrophotometer reading ([2]; triflupromazine 32 mg/L alone): 1.08; spectrophotometer reading ([2]; triflupromazine 64 mg/L alone): 0.73; spectrophotometer reading ([2]; triflupromazine 128 mg/L alone): 0.76; spectrophotometer reading ([2]; triflupromazine 256 mg/L alone): 0.41
Bleomycin | 2.22 | 6.14 | 6.14 | 1.55 | 6.21 | 6.21 | 0.15 µg/mL |  |  |  |  |  |  |  |  |  |  | 

From patent publication US9549965B2, “Pharmaceutical composition for treating a microbial infection” (HELPERBY THERAPEUTICS LIMITED, priority 2010, dated 2017)
